Measurements as given in US9334264B2, “NAMPT inhibitors” (AbbVie Inc., priority 2012, dated 2016).

Key:
[1] = target: NAMPT (Homo sapiens, UniProt P43490); experiment: Time-Resolved Fluorescence Resonance Energy Transfer (TR-FRET) Binding Assay of NAMPT with PRPP; conditions: 200 μM PRPP and 2.5 mM ATP; 2 nM NAMPT, 2 nM probe, equilibrated 16 hours
Outline: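 Binding was measured by TR-FRET with 2 nM NAMPT, 2 nM probe and 1 nM Tb-anti-His antibody in the presence of 200 μM PRPP and 2.5 mM ATP, with 2% DMSO. Equilibration lasted 16 h before reading, allowing possible enzymatic modification of compounds.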

[2] = target: NAMPT (human, recombinant, C-terminally His-tagged) (Homo sapiens, UniProt P43490); experiment: Time-Resolved Fluorescence Resonance Energy Transfer (TR-FRET) Binding Assay of NAMPT; conditions: absence of substrates; 6.8 nM NAMPT, 200 nM probe, equilibrated 3 hours
Outline: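 Displacement of 200 nM Oregon Green-labelled nicotinamide-competitive probe from 6.8 nM His-tagged NAMPT, detected with 1 nM Tb-anti-His; HEPES pH 7.5, 2% DMSO, 3 h room temperature. Em520/Em495 ratios normalized and fit four-parameter logistic for IC50.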

Chain of NAMPT (human, recombinant, C-terminally His-tagged) (P43490 whole entry): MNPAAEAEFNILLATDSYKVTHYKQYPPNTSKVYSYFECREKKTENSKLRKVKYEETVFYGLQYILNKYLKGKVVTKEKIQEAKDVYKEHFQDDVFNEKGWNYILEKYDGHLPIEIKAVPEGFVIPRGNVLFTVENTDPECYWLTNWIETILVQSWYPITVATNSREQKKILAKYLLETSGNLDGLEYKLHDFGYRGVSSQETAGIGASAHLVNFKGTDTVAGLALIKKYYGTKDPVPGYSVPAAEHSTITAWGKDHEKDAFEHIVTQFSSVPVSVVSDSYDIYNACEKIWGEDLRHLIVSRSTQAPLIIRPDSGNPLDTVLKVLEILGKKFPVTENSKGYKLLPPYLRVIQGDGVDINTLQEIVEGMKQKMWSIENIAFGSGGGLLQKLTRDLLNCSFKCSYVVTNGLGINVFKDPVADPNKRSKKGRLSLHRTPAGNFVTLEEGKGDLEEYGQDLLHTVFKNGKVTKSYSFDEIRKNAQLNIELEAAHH
Chain of NAMPT (P43490 whole entry): as above

IC50 [1]	IC50 [2]	SMILES
0.631 nM	3820 nM	CC(C)OCCNC(=O)N(Cc1ccc(C#N)cc1)c1ncc(C(=O)NCCCn2ccnc2)s1 [Example 123, 2-[(4-cyanobenzyl){[2-(propan-2-yloxy)ethyl]carbamoyl}amino]-N-[3-(1H-imidazol-1-yl)propyl]-1,3-thiazole-5-carboxamide]
0.624 nM	3520 nM	COC(C)CNC(=O)N(Cc1ccc(C#N)cc1)c1ncc(C(=O)NCCCn2ccnc2)s1 (stereo not shown) [Example 124, 2-{(4-cyanobenzyl)[(2-methoxypropyl)carbamoyl]amino}-N-[3-(1H-imidazol-1-yl)propyl]-1,3-thiazole-5-carboxamide]
0.712 nM	> 10000 nM	N#Cc1ccc(CN(C(=O)NCCOCCO)c2ncc(C(=O)NCCCn3ccnc3)s2)cc1 [Example 125, 2-[(4-cyanobenzyl){[2-(2-hydroxyethoxy)ethyl]carbamoyl}amino]-N-[3-(1H-imidazol-1-yl)propyl]-1,3-thiazole-5-carboxamide]
1.3 nM	4180 nM	CC(C)OCCCNC(=O)N(Cc1ccc(C#N)cc1)c1ncc(C(=O)NCCCn2ccnc2)s1 [Example 126, 2-[(4-cyanobenzyl){[3-(propan-2-yloxy)propyl]carbamoyl}amino]-N-[3-(1H-imidazol-1-yl)propyl]-1,3-thiazole-5-carboxamide]
0.533 nM	3180 nM	CC(C)(CO)CNC(=O)N(Cc1ccc(C#N)cc1)c1ncc(C(=O)NCCCn2ccnc2)s1 [Example 127, 2-{(4-cyanobenzyl)[(3-hydroxy-2,2-dimethylpropyl)carbamoyl]amino}-N-[3-(1H-imidazol-1-yl)propyl]-1,3-thiazole-5-carboxamide]
0.727 nM	> 10000 nM	CC(O)CNC(=O)N(Cc1ccc(C#N)cc1)c1ncc(C(=O)NCCCn2ccnc2)s1 (stereo not shown) [Example 128, 2-{(4-cyanobenzyl)[(2-hydroxypropyl)carbamoyl]amino}-N-[3-(1H-imidazol-1-yl)propyl]-1,3-thiazole-5-carboxamide]
1.16 nM	> 10000 nM	CC(CO)NC(=O)N(Cc1ccc(C#N)cc1)c1ncc(C(=O)NCCCn2ccnc2)s1 (stereo not shown) [Example 129, 2-{(4-cyanobenzyl)[(1-hydroxypropan-2-yl)carbamoyl]amino}-N-[3-(1H-imidazol-1-yl)propyl]-1,3-thiazole-5-carboxamide]
1.11 nM	> 10000 nM	N#Cc1ccc(CN(C(=O)NCCCO)c2ncc(C(=O)NCCCn3ccnc3)s2)cc1 [Example 130, 2-{(4-cyanobenzyl)[(3-hydroxypropyl)carbamoyl]amino}-N-[3-(1H-imidazol-1-yl)propyl]-1,3-thiazole-5-carboxamide]
0.743 nM	4780 nM	C=C[C@@H](CO)NC(=O)N(Cc1ccc(C#N)cc1)c1ncc(C(=O)NCCCn2ccnc2)s1 [Example 131, 2-[(4-cyanobenzyl){[(2S)-1-hydroxybut-3-en-2-yl]carbamoyl}amino]-N-[3-(1H-imidazol-1-yl)propyl]-1,3-thiazole-5-carboxamide]
1.02 nM	4850 nM	N#Cc1ccc(CN(C(=O)NCCCCO)c2ncc(C(=O)NCCCn3ccnc3)s2)cc1 [Example 132, 2-{(4-cyanobenzyl)[(4-hydroxybutyl)carbamoyl]amino}-N-[3-(1H-imidazol-1-yl)propyl]-1,3-thiazole-5-carboxamide]
0.527 nM	58.9 nM	CC(C)CCN(C(=O)[C@@H](C)Oc1ccccc1)c1ncc(C(=O)NCCCn2ccnc2)s1 [Example 133, N-[3-(1H-imidazol-1-yl)propyl]-2-{(3-methylbutyl)[(2R)-2-phenoxypropanoyl]amino}-1,3-thiazole-5-carboxamide]
0.617 nM	200 nM	CC(C)CCN(C(=O)[C@H](C)Oc1ccccc1)c1ncc(C(=O)NCCCn2ccnc2)s1 [Example 134, N-[3-(1H-imidazol-1-yl)propyl]-2-{(3-methylbutyl)[(2S)-2-phenoxypropanoyl]amino}-1,3-thiazole-5-carboxamide]
0.169 nM	93.7 nM	Cc1cc(C(=O)N(CCC(C)C)c2ncc(C(=O)NCCCn3ccnc3)s2)no1 [Example 135, N-(5-{[3-(1H-imidazol-1-yl)propyl]carbamoyl}-1,3-thiazol-2-yl)-5-methyl-N-(3-methylbutyl)-1,2-oxazole-3-carboxamide]
0.174 nM	24.4 nM	CC(C)CCN(C(=O)COc1ccccc1)c1ncc(C(=O)NCCCn2ccnc2)s1 [Example 136, N-[3-(1H-imidazol-1-yl)propyl]-2-[(3-methylbutyl)(phenoxyacetyl)amino]-1,3-thiazole-5-carboxamide]
0.236 nM	40.2 nM	CC(C)CCN(C(=O)CCc1ccccc1)c1ncc(C(=O)NCCCn2ccnc2)s1 [Example 137, N-[3-(1H-imidazol-1-yl)propyl]-2-[(3-methylbutyl)(3-phenylpropanoyl)amino]-1,3-thiazole-5-carboxamide]
0.541 nM	55.5 nM	CC(C)CCN(C(=O)C(C)c1ccccc1)c1ncc(C(=O)NCCCn2ccnc2)s1 (stereo not shown) [Example 138, N-[3-(1H-imidazol-1-yl)propyl]-2-[(3-methylbutyl)(2-phenylpropanoyl)amino]-1,3-thiazole-5-carboxamide]
0.251 nM	56.1 nM	CC(C)CCN(C(=O)Cc1ccc(F)cc1)c1ncc(C(=O)NCCCn2ccnc2)s1 [Example 139, 2-{[(4-fluorophenyl)acetyl](3-methylbutyl)amino}-N-[3-(1H-imidazol-1-yl)propyl]-1,3-thiazole-5-carboxamide]
22.3 nM	> 10000 nM	N#Cc1ccc(CN(C(=O)NCCC(N)=O)c2ncc(C(=O)NCCCn3ccnc3)s2)cc1 [Example 140, 2-{[(3-amino-3-oxopropyl)carbamoyl](4-cyanobenzyl)amino}-N-[3-(1H-imidazol-1-yl)propyl]-1,3-thiazole-5-carboxamide]
23.1 nM	> 10000 nM	CC(=O)NCC(C)CNC(=O)N(Cc1ccc(C#N)cc1)c1ncc(C(=O)NCCCn2ccnc2)s1 (stereo not shown) [Example 141, 2-[{[3-(acetylamino)-2-methylpropyl]carbamoyl}(4-cyanobenzyl)amino]-N-[3-(1H-imidazol-1-yl)propyl]-1,3-thiazole-5-carboxamide]
16.9 nM	6040 nM	CN(C)C(=O)CCNC(=O)N(Cc1ccc(C#N)cc1)c1ncc(C(=O)NCCCn2ccnc2)s1 [Example 142, 2-[(4-cyanobenzyl){[3-(dimethylamino)-3-oxopropyl]carbamoyl}amino]-N-[3-(1H-imidazol-1-yl)propyl]-1,3-thiazole-5-carboxamide]
13.7 nM	> 10000 nM	CCOCC(O)CNC(=O)N(Cc1ccc(C#N)cc1)c1ncc(C(=O)NCCCn2ccnc2)s1 (stereo not shown) [Example 143, 2-{(4-cyanobenzyl)[(3-ethoxy-2-hydroxypropyl)carbamoyl]amino}-N-[3-(1H-imidazol-1-yl)propyl]-1,3-thiazole-5-carboxamide]
33.2 nM	> 10000 nM	CCN(CC)CCCNC(=O)N(Cc1ccc(C#N)cc1)c1ncc(C(=O)NCCCn2ccnc2)s1 [Example 144, 2-[(4-cyanobenzyl){[3-(diethylamino)propyl]carbamoyl}amino]-N-[3-(1H-imidazol-1-yl)propyl]-1,3-thiazole-5-carboxamide]
107 nM	> 10000 nM	CC(=O)NCCNC(=O)N(Cc1ccc(C#N)cc1)c1ncc(C(=O)NCCCn2ccnc2)s1 [Example 145, 2-[{[2-(acetylamino)ethyl]carbamoyl}(4-cyanobenzyl)amino]-N-[3-(1H-imidazol-1-yl)propyl]-1,3-thiazole-5-carboxamide]
98 nM	> 10000 nM	CCN(CC)CCNC(=O)N(Cc1ccc(C#N)cc1)c1ncc(C(=O)NCCCn2ccnc2)s1 [Example 146, 2-[(4-cyanobenzyl){[2-(diethylamino)ethyl]carbamoyl}amino]-N-[3-(1H-imidazol-1-yl)propyl]-1,3-thiazole-5-carboxamide]
71.9 nM	> 10000 nM	CC(C)C(=O)NCCNC(=O)N(Cc1ccc(C#N)cc1)c1ncc(C(=O)NCCCn2ccnc2)s1 [Example 147, 2-[(4-cyanobenzyl)({2-[(2-methylpropanoyl)amino]ethyl}carbamoyl)amino]-N-[3-(1H-imidazol-1-yl)propyl]-1,3-thiazole-5-carboxamide]
60.6 nM	> 10000 nM	C=C[C@H](CO)NC(=O)N(Cc1ccc(C#N)cc1)c1ncc(C(=O)NCCCn2ccnc2)s1 [Example 148, 2-[(4-cyanobenzyl){[(2R)-1-hydroxybut-3-en-2-yl]carbamoyl}amino]-N-[3-(1H-imidazol-1-yl)propyl]-1,3-thiazole-5-carboxamide]
94.2 nM	> 10000 nM	N#Cc1ccc(CN(C(=O)NCCCN2CC(O)C2)c2ncc(C(=O)NCCCn3ccnc3)s2)cc1 [Example 149, 2-[(4-cyanobenzyl){[3-(3-hydroxyazetidin-1-yl)propyl]carbamoyl}amino]-N-[3-(1H-imidazol-1-yl)propyl]-1,3-thiazole-5-carboxamide]
0.21 nM	252 nM	COCCC(=O)N(CCC(C)C)c1ncc(C(=O)NCCCn2ccnc2)s1 [Example 150, N-[3-(1H-imidazol-1-yl)propyl]-2-[(3-methoxypropanoyl)(3-methylbutyl)amino]-1,3-thiazole-5-carboxamide]
0.412 nM	219 nM	COCC(=O)N(CCC(C)C)c1ncc(C(=O)NCCCn2ccnc2)s1 [Example 151, N-[3-(1H-imidazol-1-yl)propyl]-2-[(methoxyacetyl)(3-methylbutyl)amino]-1,3-thiazole-5-carboxamide]
